# Test results: ChEMBL document CHEMBL5523715, “Inhibitory interactions of the 2,3-dihydro-6,7-dihydroxy-1H-isoindol-1-one scaffold with Bunyavirales cap-snatching endonucleases expose relevant drug design features” (Eur J Med Chem, 2024)
# The source made the active and inactive calls. The rule behind the calls is not given here.
# Tests used:
# [1] = target: RNA-directed RNA polymerase L (Toscana virus) (UniProt P37800); details: dose 25.0 µM
# [2] = target: T1, RNA-directed RNA polymerase L (Toscana virus, UniProt P37800)
# [3] = target: RNA-directed RNA polymerase L (Bunyavirus La Crosse) (UniProt A5HC98); details: La Crosse virus; dose 25.0 µM
# Mammarenavirus lassaense = assay: Thermal stabilization of LASV cap-ENDO assessed as increase in melting temperature at 25 uM in presence of MnCl2 by Sypro Orange dye based assay
# [4] = test system: Mammarenavirus choriomeningitidis; assay: Thermal stabilization of LCMV cap-ENDO assessed as increase in melting temperature at 25 uM in presence of MnCl2 by Sypro Orange dye based assay
# [5] = target: RNA-directed RNA polymerase L (Bunyavirus La Crosse, UniProt A5HC98); set-up: species or system La Crosse virus
# [6] = target: RNA-directed RNA polymerase L (Andes orthohantavirus) (UniProt Q9E005); details: Orthohantavirus andesense; dose 25.0 µM
# RNA-directed RNA polymerase L (Andes orthohantavirus), sequence (Q9E005 whole entry): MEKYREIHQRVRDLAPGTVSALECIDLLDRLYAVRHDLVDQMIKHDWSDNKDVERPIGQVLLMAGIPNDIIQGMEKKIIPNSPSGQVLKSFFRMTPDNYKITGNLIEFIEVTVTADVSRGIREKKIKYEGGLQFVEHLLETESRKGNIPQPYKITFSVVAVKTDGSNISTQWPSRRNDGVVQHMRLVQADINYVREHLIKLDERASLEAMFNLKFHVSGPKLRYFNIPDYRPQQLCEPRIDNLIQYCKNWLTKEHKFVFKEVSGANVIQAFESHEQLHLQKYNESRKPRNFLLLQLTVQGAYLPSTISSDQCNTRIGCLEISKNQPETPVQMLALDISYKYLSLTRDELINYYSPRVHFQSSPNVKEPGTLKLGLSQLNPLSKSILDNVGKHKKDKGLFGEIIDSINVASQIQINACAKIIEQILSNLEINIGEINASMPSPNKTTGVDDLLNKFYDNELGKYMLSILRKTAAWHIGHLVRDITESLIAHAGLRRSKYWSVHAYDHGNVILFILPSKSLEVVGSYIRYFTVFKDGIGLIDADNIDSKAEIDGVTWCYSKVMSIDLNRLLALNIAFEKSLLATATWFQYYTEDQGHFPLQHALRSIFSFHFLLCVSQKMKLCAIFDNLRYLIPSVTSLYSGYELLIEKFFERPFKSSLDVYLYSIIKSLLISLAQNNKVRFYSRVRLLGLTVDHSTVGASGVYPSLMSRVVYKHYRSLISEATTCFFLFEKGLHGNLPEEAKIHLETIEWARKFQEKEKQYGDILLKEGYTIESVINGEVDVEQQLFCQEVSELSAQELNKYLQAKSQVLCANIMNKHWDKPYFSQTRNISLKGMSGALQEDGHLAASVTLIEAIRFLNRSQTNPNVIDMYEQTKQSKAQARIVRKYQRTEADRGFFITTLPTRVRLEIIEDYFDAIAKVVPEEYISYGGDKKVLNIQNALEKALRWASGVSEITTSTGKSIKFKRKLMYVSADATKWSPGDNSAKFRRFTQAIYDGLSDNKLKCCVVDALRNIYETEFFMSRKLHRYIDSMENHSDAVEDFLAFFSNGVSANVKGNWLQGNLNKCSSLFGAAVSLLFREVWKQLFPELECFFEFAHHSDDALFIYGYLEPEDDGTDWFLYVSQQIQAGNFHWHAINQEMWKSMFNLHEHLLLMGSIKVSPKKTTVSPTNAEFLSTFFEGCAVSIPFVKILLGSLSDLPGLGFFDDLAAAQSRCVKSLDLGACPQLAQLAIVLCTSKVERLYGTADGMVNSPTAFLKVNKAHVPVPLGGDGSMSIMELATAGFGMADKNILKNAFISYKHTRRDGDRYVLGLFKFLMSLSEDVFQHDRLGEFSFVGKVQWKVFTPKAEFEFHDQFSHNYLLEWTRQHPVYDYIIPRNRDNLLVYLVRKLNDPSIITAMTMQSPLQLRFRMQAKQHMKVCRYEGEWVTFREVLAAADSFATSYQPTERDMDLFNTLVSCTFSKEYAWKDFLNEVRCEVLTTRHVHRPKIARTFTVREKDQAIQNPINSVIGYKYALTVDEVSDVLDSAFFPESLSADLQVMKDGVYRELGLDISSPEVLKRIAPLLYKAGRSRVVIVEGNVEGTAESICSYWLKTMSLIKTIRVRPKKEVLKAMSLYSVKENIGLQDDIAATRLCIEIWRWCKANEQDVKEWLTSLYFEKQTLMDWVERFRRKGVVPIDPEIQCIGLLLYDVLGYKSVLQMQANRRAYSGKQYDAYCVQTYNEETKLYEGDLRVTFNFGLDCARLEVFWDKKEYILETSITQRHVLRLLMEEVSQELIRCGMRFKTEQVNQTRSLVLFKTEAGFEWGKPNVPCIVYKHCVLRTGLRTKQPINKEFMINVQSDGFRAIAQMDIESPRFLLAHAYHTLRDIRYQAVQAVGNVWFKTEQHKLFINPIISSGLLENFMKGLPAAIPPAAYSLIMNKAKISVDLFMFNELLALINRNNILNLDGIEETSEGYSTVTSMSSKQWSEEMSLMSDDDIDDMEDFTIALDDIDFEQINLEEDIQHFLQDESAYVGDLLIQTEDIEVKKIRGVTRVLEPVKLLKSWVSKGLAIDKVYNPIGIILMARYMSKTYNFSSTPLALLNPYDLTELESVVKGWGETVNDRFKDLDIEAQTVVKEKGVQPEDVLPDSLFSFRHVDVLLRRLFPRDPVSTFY
# [7] = target: RNA-directed RNA polymerase L (Andes orthohantavirus, UniProt Q9E005); set-up: species or system Orthohantavirus andesense
# RNA-directed RNA polymerase L (Andes orthohantavirus, UniProt Q9E005), sequence (Q9E005 whole entry): as above
# Pichinde virus = assay: Thermal stabilization of PICV cap-ENDO assessed as increase in melting temperature at 25 uM in presence of MnCl2 by Sypro Orange dye based assay
# [8] = target: RNA-directed RNA polymerase L (Toscana virus) (UniProt P37800)
# [9] = target: T1, RNA-directed RNA polymerase L; remark: listed apart in the source
# [10] = target: RNA-directed RNA polymerase L (Toscana virus) (UniProt P37800); remark: listed apart in the source
# [11] = target: RNA-directed RNA polymerase L (Toscana virus) (UniProt P37800); remark: listed apart in the source
# [12] = Metal chelating activity assessed as compound-Mn(II) complex formation by measuring apparent formation constant (K) by UV-Vis spectrophotometric analysis; assay type: functional
# [13] = Metal chelating activity assessed as compound-Mg(II) complex formation by measuring apparent formation constant (K) by UV-Vis spectrophotometric analysis; assay type: functional
SMILES,Activity [1],IC50 [2] [µM],Activity [3],Activity (Mammarenavirus lassaense),Activity [4],IC50 [5] [µM],Activity [6],IC50 [7] [µM],Activity (Pichinde virus),further results
O=C1c2c(ccc(O)c2O)CN1Cc1ccc([N+](=O)[O-])cc1,Active,4.7,Active,Active,Active,8,Active,3.7,Active,–
Cc1ccc(CN2Cc3ccc(O)c(O)c3C2=O)cc1,Active,1.5,Active,Active,Active,3.4,Active,6.4,Active,–
O=C1c2c(ccc(O)c2O)CN1Cc1cc(O)c(O)c(O)c1,Active,0.9,Active,Active,Active,1.1,Active,1.5,Active,–
O=C1c2c(ccc(O)c2O)CN1Cc1cccc2ccccc12,Active,7.8,Active,Active,Active,11.2,Active,3.8,Active,–
O=C1c2c(ccc(O)c2O)CN1Cc1ccc(O)c(O)c1,–,2.4,–,–,–,4,–,0.5,–,-TdeltaS [8]: 1.76 kcal/mol; ΔTm [1]: > 1 °C; ΔTm [3]: > 1 °C; Kd [9]: 28 µM; ΔTm (Mammarenavirus lassaense): < 1 °C; ΔTm [4]: < 1 °C; deltaG [10]: -6.22 kcal/mol; deltaH [11]: -7.97 kcal/mol; ΔTm [6]: > 1 °C; ΔTm (Pichinde virus): < 1 °C
O=C1c2c(ccc(O)c2O)CN1CCc1ccc(O)cc1,Active,2.8,Active,Active,Active,6.1,Active,1,Active,–
O=C1c2c(ccc(O)c2O)CN1Cc1ccc(F)c(Cl)c1,inactive,13.4,inactive,inactive,inactive,4.8,inactive,7.6,inactive,–
O=C1c2c(ccc(O)c2O)CN1Cc1ccc(F)cc1,Active,5.7,Active,Active,Active,4,Active,1.7,Active,–
O=C1c2c(ccc(O)c2O)CN1Cc1ccc2ccccc2c1,Active,5.8,Active,Active,Active,3.9,Active,1.9,Active,–
O=C1c2c(ccc(O)c2O)CN1Cc1ccccc1,inactive,3.3,inactive,inactive,inactive,9,inactive,1.1,inactive,–
O=C1c2c(ccc(O)c2O)CN1Cc1ccc(Cl)c(C(F)(F)F)c1,Active,7.3,Active,Active,Active,29.2,Active,1.3,Active,–
O=C1c2c(ccc(O)c2O)CN1Cc1ccc(O)cc1,Active,3.6,Active,Active,Active,0.7,Active,1.6,Active,log(activity) [12]: 3.37; log(activity) [13]: 2.31
